Measured values from patent US20220306659A1, “COMPOUND INHIBITING AND INDUCING DEGRADATION OF EGFR AND ALK” (BEIJING TIDE PHARMACEUTICAL CO., LTD., priority 2019, published 2022).

Experiments:
[1] = biological target: Ba/F3(EGFR^L858R/T790M/C797S) cells (Homo sapiens, UniProt P00533, T790M/C797S/L858R, cells depend on it); assay: Assay of activity on Ba/F3 cells (CTG, 72 h); assay type: cell-based; conditions: read-out: IC50 (nM) Ba/F3 (EGFR^L858R/T790M/C797S)
Procedure, shortened: (§1)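 Ba/F3 cells dependent on each EGFR triple mutant were exposed to 3-fold compound dilutions for 72 h at 37° C, 5% CO2, with CellTiter-Glo luminescence as the read-out.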

ALK = ALK (Homo sapiens, UniProt Q9UM73); assay: Assay of activity on ALK kinase; assay type: biochemical; conditions: kinase inhibition
Experimental: (§2) Assay of activity on ALK kinase
(§3) (1) A compound stock solution was prepared;
(§4) (2) The compound stock solution was diluted 3× to obtain a compound dilution;
(§5) (5) 5 μl of the 2× kinase working solution was added to the reaction plate, centrifuged at 1,000 rpm for 1 min, and incubated at 25° C. for 15 min;
(§6) (7) 5 μl of the TK-substrate-biotin and ATP (the mixture prepared in step (6)) was added to initiate the reaction;
(§7) (8) The mixture was centrifuged at 1,000 g for 30 s; the plate was sealed, and incubated at 25° C. for 60 min;
(§8) (11) The mixture was centrifuged at 1,000 g for 1 min, and incubated at 25° C. for 60 min;
(§9) Formula of inhibition rate (%): […]
(§10) The nonlinear regression curve (dose response-variable slope) between the value of inhibition rate (%) and the logarithm of compound concentration was fitted with graphpad prism 8.0, the effect dose curve of compound was drawn, and the IC50 value was calculated.
(§11) Y=Bottom+(Top−Bottom)/(1+10^((LogIC50−X)*Hill Slope))
(§12) X-axis: logarithm of compound concentration; Y axis: inhibition rate ([…])

EGFR^Del19/T790M/C797S = EGFR^Del19/T790M/C797S (Homo sapiens, UniProt P00533, C797S/DEL746-750/T790M); assay: EGFR inhibitory activity assay (TK-substrate-biotin/ATP, 665/615 ratio); assay type: biochemical; conditions: kinase inhibition
Experimental: EGFR Inhibitory Activity Assay
(2) The plate was sealed, and centrifuged at 1,000 g for 1 min;
(4) 5 μl of the 2×EGFR protein working solution was added to the 384-well plate from step (2), centrifuged at 1,000 g for 30 s, and allowed to stand at room temperature (mixed thoroughly) for 10 min;
(6) 5 µL of the TK-substrate-biotin and ATP (the mixture prepared in step (5)) was added to the 384-well plate from step (4) to initiate the reaction;
(7) The mixture was centrifuged at 1,000 g for 30 s; the plate was sealed, and allowed to stand (and reacted) at room temperature for 40 min;
(10) The mixture was centrifuged at 1,000 g for 30 s, and allowed to stand (reacted) at room temperature for 1 h;
as §9, §10

EGFR^L858R/T790M/C797S = EGFR^L858R/T790M/C797S (Homo sapiens, UniProt P00533, C797S/L858R/T790M); assay: as above; assay type: biochemical; conditions: kinase inhibition
Procedure, shortened: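 HTRF kinase assay: enzyme preincubated with compound 10 min at room temperature, then reacted with biotinylated TK substrate and ATP for 40 min at room temperature.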

[2] = biological target: Ba/F3(EGFR^Del19/T790M/C797S) cells (Homo sapiens, UniProt P00533, DEL746-750/T790M/C797S, cells depend on it); assay: Assay of activity on Ba/F3 cells (CTG, 72 h); assay type: cell-based; conditions: read-out: IC50 (nM) Ba/F3 (EGFR^Del19/T790M/C797S)
Procedure, shortened: as §1

Ba/F3(EML4-ALK) cells = biological target: T1, Ba/F3(EML4-ALK) cells (Homo sapiens, UniProt Q9UM73); assay: Assay of activity on Ba/F3(EML4-ALK) cells (CTG, 72 h); assay type: cell-based; conditions: read-out: IC50 (nM) Ba/F3(EML4-ALK)
T1 construct: fused on or other part: Q9HC35 (Echinoderm microtubule-associated protein-like 4)
Procedure, shortened: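 Ba/F3(EML4-ALK) cells, 700 per well, were exposed to 3-fold serial compound dilutions for 72 h at 37° C, 5% CO2, and viability was then read by CTG luminescence.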

ALK^G1202R = ALK^G1202R (Homo sapiens, UniProt Q9UM73, G1202R); assay: Assay of activity on ALK kinase; assay type: biochemical; conditions: kinase inhibition
Experimental: as §2, §3, §4, §5, §6, §7, §8, §9, §10, §11, §12

Chain of EGFR^Del19/T790M/C797S (P00533 with tags, fused parts or gaps DEL746-750/T790M/C797S): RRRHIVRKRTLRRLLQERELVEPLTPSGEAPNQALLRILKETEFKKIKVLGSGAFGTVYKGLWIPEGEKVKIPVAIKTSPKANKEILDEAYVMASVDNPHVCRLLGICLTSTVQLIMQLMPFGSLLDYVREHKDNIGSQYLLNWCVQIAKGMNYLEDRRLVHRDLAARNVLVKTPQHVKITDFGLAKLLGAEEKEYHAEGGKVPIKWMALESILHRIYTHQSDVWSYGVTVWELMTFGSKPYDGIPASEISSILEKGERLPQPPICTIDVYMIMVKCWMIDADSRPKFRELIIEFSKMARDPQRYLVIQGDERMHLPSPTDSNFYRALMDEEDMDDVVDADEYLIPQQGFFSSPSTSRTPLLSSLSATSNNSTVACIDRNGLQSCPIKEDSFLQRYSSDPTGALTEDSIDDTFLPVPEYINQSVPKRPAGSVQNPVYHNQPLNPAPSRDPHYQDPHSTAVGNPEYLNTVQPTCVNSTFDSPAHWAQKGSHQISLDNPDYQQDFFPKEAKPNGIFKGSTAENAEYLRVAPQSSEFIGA
Chain of EGFR^L858R/T790M/C797S (P00533 25-1210 T790M/C797S/L858R): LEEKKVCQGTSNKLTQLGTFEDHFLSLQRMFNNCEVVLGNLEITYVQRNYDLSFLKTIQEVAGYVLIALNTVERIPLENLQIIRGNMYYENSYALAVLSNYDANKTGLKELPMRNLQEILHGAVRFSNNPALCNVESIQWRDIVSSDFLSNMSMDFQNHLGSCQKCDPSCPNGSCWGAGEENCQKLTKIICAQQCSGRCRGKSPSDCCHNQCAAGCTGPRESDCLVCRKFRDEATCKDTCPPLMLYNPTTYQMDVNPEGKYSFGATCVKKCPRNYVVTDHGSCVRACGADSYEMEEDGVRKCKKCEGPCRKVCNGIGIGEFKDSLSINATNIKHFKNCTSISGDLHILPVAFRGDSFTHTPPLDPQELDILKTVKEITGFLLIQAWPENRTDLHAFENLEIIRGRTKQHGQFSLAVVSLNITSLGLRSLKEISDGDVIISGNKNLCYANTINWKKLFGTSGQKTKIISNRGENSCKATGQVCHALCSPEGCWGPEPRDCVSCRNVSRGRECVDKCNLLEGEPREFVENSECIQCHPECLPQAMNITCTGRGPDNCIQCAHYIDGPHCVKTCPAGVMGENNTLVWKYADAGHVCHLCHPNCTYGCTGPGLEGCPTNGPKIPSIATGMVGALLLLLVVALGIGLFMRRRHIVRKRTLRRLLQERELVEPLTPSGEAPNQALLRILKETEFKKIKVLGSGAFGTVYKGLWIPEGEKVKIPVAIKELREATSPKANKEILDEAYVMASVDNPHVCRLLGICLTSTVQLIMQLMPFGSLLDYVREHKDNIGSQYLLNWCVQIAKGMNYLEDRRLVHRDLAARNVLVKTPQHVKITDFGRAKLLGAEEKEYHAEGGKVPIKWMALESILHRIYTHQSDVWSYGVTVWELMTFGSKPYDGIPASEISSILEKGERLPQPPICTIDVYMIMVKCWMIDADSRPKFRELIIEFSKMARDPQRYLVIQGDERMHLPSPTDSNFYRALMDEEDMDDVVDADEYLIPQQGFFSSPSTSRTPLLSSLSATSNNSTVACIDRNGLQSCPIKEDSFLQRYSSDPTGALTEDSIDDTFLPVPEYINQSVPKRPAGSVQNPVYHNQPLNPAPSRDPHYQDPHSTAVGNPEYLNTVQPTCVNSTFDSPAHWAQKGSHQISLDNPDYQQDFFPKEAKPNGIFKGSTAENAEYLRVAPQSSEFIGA
Chain of Ba/F3(EGFR^L858R/T790M/C797S) cells (P00533 whole entry T790M/C797S/L858R): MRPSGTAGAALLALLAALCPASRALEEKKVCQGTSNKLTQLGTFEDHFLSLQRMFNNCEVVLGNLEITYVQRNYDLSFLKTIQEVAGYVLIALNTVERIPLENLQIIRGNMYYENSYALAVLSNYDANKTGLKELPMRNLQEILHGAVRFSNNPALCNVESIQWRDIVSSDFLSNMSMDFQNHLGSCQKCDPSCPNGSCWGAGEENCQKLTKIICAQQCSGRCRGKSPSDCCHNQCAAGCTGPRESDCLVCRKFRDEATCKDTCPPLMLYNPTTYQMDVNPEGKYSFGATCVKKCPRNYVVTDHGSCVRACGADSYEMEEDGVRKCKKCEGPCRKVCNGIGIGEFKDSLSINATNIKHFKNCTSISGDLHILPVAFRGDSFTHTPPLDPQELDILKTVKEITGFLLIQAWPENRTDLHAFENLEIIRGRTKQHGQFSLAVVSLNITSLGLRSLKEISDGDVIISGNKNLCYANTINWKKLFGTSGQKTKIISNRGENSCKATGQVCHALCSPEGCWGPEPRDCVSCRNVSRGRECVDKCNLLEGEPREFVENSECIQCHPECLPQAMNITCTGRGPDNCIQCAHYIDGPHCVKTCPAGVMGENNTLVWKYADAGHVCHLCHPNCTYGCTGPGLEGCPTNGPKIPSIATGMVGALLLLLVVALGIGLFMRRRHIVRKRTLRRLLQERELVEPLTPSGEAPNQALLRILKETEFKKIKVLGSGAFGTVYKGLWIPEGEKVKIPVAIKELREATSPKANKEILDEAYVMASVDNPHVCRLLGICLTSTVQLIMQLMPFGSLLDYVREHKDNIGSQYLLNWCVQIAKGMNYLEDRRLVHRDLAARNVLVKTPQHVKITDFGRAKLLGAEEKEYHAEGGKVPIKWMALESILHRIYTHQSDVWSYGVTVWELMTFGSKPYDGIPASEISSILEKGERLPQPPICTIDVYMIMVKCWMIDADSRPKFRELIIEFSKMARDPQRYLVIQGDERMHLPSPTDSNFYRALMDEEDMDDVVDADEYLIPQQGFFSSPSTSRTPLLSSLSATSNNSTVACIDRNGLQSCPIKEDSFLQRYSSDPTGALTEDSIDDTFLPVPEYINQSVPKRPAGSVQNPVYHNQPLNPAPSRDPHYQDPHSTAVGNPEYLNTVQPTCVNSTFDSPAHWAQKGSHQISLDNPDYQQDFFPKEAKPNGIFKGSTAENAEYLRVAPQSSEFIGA
T1 sequence (Q9UM73 whole entry, change not shown, the tested form may be a part): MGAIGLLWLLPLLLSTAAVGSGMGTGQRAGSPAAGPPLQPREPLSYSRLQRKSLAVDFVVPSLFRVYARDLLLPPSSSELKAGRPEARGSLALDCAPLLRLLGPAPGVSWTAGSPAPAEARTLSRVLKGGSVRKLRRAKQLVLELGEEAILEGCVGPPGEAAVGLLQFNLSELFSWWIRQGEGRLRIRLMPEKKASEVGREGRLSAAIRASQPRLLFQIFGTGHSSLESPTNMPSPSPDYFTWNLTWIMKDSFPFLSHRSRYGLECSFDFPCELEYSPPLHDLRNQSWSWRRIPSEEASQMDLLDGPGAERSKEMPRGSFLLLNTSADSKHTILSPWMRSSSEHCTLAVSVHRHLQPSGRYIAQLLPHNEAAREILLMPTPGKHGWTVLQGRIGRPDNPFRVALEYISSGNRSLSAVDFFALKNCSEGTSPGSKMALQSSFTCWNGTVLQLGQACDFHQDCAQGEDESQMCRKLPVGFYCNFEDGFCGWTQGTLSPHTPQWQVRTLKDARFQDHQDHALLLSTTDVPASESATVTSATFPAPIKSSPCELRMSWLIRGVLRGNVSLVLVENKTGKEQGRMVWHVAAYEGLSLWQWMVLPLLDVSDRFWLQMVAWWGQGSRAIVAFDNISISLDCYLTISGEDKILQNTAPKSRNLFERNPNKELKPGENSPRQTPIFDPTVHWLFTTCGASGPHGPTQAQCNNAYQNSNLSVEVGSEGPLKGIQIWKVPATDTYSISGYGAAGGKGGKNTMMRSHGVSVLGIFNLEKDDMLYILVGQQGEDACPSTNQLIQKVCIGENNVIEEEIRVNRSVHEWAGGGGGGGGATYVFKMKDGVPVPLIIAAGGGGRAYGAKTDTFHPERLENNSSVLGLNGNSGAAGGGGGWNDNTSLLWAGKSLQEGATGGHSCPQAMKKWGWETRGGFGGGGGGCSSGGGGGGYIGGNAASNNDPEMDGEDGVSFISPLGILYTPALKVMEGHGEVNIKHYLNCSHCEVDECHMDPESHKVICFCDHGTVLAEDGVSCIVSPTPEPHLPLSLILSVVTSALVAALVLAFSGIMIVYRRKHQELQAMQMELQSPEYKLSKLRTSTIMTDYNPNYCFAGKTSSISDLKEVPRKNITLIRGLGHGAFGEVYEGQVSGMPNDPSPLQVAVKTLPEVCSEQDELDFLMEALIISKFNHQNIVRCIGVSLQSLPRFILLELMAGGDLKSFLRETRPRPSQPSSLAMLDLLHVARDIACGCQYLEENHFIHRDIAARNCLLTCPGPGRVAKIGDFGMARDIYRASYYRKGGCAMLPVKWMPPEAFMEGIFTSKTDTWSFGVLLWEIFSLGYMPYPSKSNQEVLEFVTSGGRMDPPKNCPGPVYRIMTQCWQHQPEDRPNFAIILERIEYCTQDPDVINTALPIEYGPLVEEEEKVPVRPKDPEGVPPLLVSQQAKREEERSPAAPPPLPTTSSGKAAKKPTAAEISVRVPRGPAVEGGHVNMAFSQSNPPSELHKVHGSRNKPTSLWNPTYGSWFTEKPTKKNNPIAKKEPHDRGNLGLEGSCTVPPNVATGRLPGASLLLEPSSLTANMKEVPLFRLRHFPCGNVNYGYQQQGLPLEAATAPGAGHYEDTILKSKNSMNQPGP

| GI50 [1] [nM] | IC50 (ALK) [nM] | IC50 (EGFR^Del19/T790M/C797S) [nM] | IC50 (EGFR^L858R/T790M/C797S) [nM] | GI50 [2] [nM] | GI50 (Ba/F3(EML4-ALK) cells) [nM] | IC50 (ALK^G1202R) [nM] | SMILES |
| --- | --- | --- | --- | --- | --- | --- | --- |
| – | 1 to 100 | 1 to 100 | 1 to 100 | 1 to 100 | 1 to 100 | 201 to 300 | COc1cc(N2CCC(N3CCN(CCCCC#Cc4cccc5c4CN(C4CCC(=O)NC4=O)C5=O)CC3)CC2)ccc1Nc1ncc(Cl)c(Nc2ccccc2P(C)(C)=O)n1 (stereo not drawn) [Compound C116, 3-(4-(6-(4-(1-(4-((5-chloro-4-((2-(dimethylphosphoryl)phenyl)amino)pyrimidin-2-yl)amino)-3-methoxyphenyl)piperidin-4-yl)piperazin-1-yl)hex-1-yn-1-yl)-1-oxoisoindolin-2-yl)piperidine-2,6-dione] |
| 1 to 100 | 1 to 100 | 1 to 100 | 1 to 100 | – | 1 to 100 | 201 to 300 | COc1cc(N2CCC(N3CCN(CCCCCC#Cc4cc(F)cc5c4CN(C4CCC(=O)NC4=O)C5=O)CC3)CC2)ccc1Nc1ncc(Cl)c(Nc2ccccc2P(C)(C)=O)n1 (stereo not drawn) [Compound C167, 3-(4-(7-(4-(1-(4-((5-chloro-4-((2-(dimethylphosphoryl)phenyl)amino)pyrimidin-2-yl)amino)-3-methoxyphenyl)piperidin-4-yl)piperazin-1-yl)hept-1-yn-1-yl)-6-fluoro-1-oxoisoindolin-2-yl)piperidine-2,6-dione] |
| – | 1 to 100 | 1 to 100 | 1 to 100 | 1 to 100 | 1 to 100 | 201 to 300 | COc1cc(N2CCC(N3CCN(CCCCCCC#Cc4cccc5c4CN(C4CCC(=O)NC4=O)C5=O)CC3)CC2)ccc1Nc1ncc(Cl)c(Nc2ccccc2P(C)(C)=O)n1 (stereo not drawn) [Compound C177, 3-(4-(8-(4-(1-(4-((5-chloro-4-((2-(dimethylphosphoryl)phenyl)amino)pyrimidin-2-yl)amino)-3-methoxyphenyl)piperidin-4-yl)piperazin-1-yl)oct-1-yn-1-yl)-1-oxoisoindolin-2-yl)piperidine-2,6-dione] |
| – | 1 to 100 | 1 to 100 | 1 to 100 | 1 to 100 | 1 to 100 | 201 to 300 | COc1cc(N2CCC(N3CCN(CCCCCCCC#Cc4cccc5c4CN(C4CCC(=O)NC4=O)C5=O)CC3)CC2)ccc1Nc1ncc(Cl)c(Nc2ccccc2P(C)(C)=O)n1 (stereo not drawn) [Compound C178, 3-(4-(9-(4-(1-(4-((5-chloro-4-((2-(dimethylphosphoryl)phenyl)amino)pyrimidin-2-yl)amino)-3-methoxyphenyl)piperidin-4-yl)piperazin-1-yl)non-1-yn-1-yl)-1-oxoisoindolin-2-yl)piperidine-2,6-dione] |
| – | 1 to 100 | 1 to 100 | 1 to 100 | 1 to 100 | 1 to 100 | 201 to 300 | COc1cc(N2CCC(N3CCN(CCCCC#Cc4ccc5c(c4)CN(C4CCC(=O)NC4=O)C5=O)CC3)CC2)ccc1Nc1ncc(Cl)c(Nc2ccccc2P(C)(C)=O)n1 (stereo not drawn) [Compound C192, 3-(5-(6-(4-(1-(4-((5-chloro-4-((2-(dimethylphosphoryl)phenyl)amino)pyrimidin-2-yl)amino)-3-methoxyphenyl)piperidin-4-yl)piperazin-1-yl)hex-1-yn-1-yl)-1-oxoisoindolin-2-yl)piperidine-2,6-dione] |

The next lines start with the molecule.

| SMILES | GI50 [1] [nM] | IC50 (ALK) [nM] | IC50 (EGFR^Del19/T790M/C797S) [nM] | IC50 (EGFR^L858R/T790M/C797S) [nM] | GI50 [2] [nM] | GI50 (Ba/F3(EML4-ALK) cells) [nM] | IC50 (ALK^G1202R) [nM] |
| --- | --- | --- | --- | --- | --- | --- | --- |
| COc1cc(N2CCC(N3CCN(C(=O)CCCCCCOc4cccc5c4C(=O)N(C4CCC(=O)NC4=O)C5=O)CC3)CC2)ccc1Nc1ncc(Cl)c(Nc2ccccc2P(C)(C)=O)n1 (stereo not drawn) [Compound A2, 4-((7-(4-(1-(4-((5-chloro-4-((2-(dimethylphosphoryl)phenyl)amino)pyrimidin-2-yl)amino)-3-methoxyphenyl)piperidin-4-yl)piperazin-1-yl)-7-oxoheptyl)oxy)-2-(2,6-dioxopiperidin-3-yl)isoindoline-1,3-dione] | 201 to 300 | 1 to 100 | 101 to 200 | 1 to 100 | – | – | – |
| COc1cc(N2CCC(N3CCN(CCCCCCCOc4cccc5c4C(=O)N(C4CCC(=O)NC4=O)C5=O)CC3)CC2)ccc1Nc1ncc(Cl)c(Nc2ccccc2P(C)(C)=O)n1 (stereo not drawn) [Compound A10, 4-((7-(4-(1-(4-((5-chloro-4-((2-(dimethylphosphoryl)phenyl)amino)pyrimidin-2-yl)amino)-3-methoxyphenyl)piperidin-4-yl)piperazin-1-yl)heptyl)oxy)-2-(2,6-dioxopiperidin-3-yl)isoindoline-1,3-dione] | 1 to 100 | 1 to 100 | 1 to 100 | 1 to 100 | 1 to 100 | 1 to 100 | 101 to 200 |
| COc1cc(N2CCC(N3CCN(CCCCCCCCCOc4cccc5c4C(=O)N(C4CCC(=O)NC4=O)C5=O)CC3)CC2)ccc1Nc1ncc(Cl)c(Nc2ccccc2P(C)(C)=O)n1 (stereo not drawn) [Compound A11, 4-((9-(4-(1-(4-((5-chloro-4-((2-(dimethylphosphoryl)phenyl)amino)pyrimidin-2-yl)amino)-3-methoxyphenyl)piperidin-4-yl)piperazin-1-yl)nonyl)oxy)-2-(2,6-dioxopiperidin-3-yl)isoindoline-1,3-dione] | 101 to 200 | 1 to 100 | 1 to 100 | 1 to 100 | 1 to 100 | 1 to 100 | 101 to 200 |
